Reference: ChEMBL document CHEMBL3045792, “Synthesis, antimicrobial activity, and molecular modeling of novel 4-(3-(4-benzylpiperazin-1-yl)propoxy)-7-methoxy-3-substituted phenyl-2H-chromen-2-one” (2013)
Calls of active or inactive are those of the source. No cut-off for these calls is given here.

How the values were obtained:
Type in all cases: functional
Bacillus subtilis [1] = test: Antibacterial activity against Bacillus subtilis assessed as growth inhibition at 900 ug/ml by NCCLS […] method; settings: read-out: IZ
Proteus vulgaris [2] = test: Antibacterial activity against Proteus vulgaris assessed as growth inhibition at 600 ug/ml by NCCLS […] method; settings: read-out: IZ
Fusarium oxysporum [3] = test: Antifungal activity against Fusarium oxysporum assessed as growth inhibition at 600 ug/ml; settings: read-out: IZ
Exserohilum rostratum [4] = test: Antifungal activity against Setosphaeria rostrata assessed as growth inhibition at 900 ug/ml; settings: read-out: IZ
Klebsiella aerogenes [5] = test: Antibacterial activity against Enterobacter aerogenes assessed as growth inhibition at 900 ug/ml by NCCLS […] method
Klebsiella pneumoniae [6] = test: Antibacterial activity against Klebsiella pneumoniae assessed as growth inhibition at 600 ug/ml by NCCLS […] method; settings: read-out: IZ
Bacillus subtilis [7] = test: Antibacterial activity against Bacillus subtilis assessed as growth inhibition at 600 ug/ml by NCCLS […] method; settings: read-out: IZ
Exserohilum rostratum [8] = test: Antifungal activity against Setosphaeria rostrata assessed as growth inhibition at 300 ug/ml; settings: read-out: IZ
Colletotrichum falcatum [9] = test: Antifungal activity against Glomerella tucumanensis assessed as growth inhibition at 300 ug/ml; settings: read-out: IZ
Priestia megaterium [10] = test: Antibacterial activity against Bacillus megaterium assessed as growth inhibition at 600 ug/ml by NCCLS […] method; settings: read-out: IZ
Klebsiella pneumoniae [11] = test: Antibacterial activity against Klebsiella pneumoniae assessed as growth inhibition at 900 ug/ml by NCCLS […] method; settings: read-out: IZ
Exserohilum rostratum [12] = test: Antifungal activity against Setosphaeria rostrata assessed as growth inhibition at 600 ug/ml; settings: read-out: IZ
Streptococcus pyogenes [13] = test: Antibacterial activity against Streptococcus pyogenes assessed as growth inhibition at 600 ug/ml by NCCLS […] method; settings: read-out: IZ
Staphylococcus aureus [14] = test: Antibacterial activity against Staphylococcus aureus assessed as growth inhibition at 600 ug/ml by NCCLS […] method; settings: read-out: IZ
Escherichia coli [15] = test: Antibacterial activity against Escherichia coli assessed as growth inhibition at 900 ug/ml by NCCLS […] method; settings: read-out: IZ
Colletotrichum falcatum [16] = test: Antifungal activity against Glomerella tucumanensis assessed as growth inhibition at 1200 ug/ml; settings: read-out: IZ
Colletotrichum falcatum [17] = test: Antifungal activity against Glomerella tucumanensis assessed as growth inhibition at 900 ug/ml; settings: read-out: IZ
Candida albicans [18] = test: Antifungal activity against Candida albicans assessed as growth inhibition at 1200 ug/ml; settings: read-out: IZ
Fusarium oxysporum [19] = test: Antifungal activity against Fusarium oxysporum assessed as growth inhibition at 1200 ug/ml; settings: read-out: IZ
Colletotrichum falcatum [20] = test: Antifungal activity against Glomerella tucumanensis assessed as growth inhibition at 600 ug/ml; settings: read-out: IZ
Fusarium oxysporum [21] = test: Antifungal activity against Fusarium oxysporum assessed as growth inhibition at 900 ug/ml; settings: read-out: IZ
Proteus mirabilis [22] = test: Antibacterial activity against Proteus mirabilis assessed as growth inhibition at 900 ug/ml by NCCLS […] method; settings: read-out: IZ
Bacillus pumilus [23] = test: Antibacterial activity against Bacillus pumilus assessed as growth inhibition at 600 ug/ml by NCCLS […] method; settings: read-out: IZ
Escherichia coli [24] = test: Antibacterial activity against Escherichia coli assessed as growth inhibition at 600 ug/ml by NCCLS […] method; settings: read-out: IZ
Streptococcus pyogenes [25] = test: Antibacterial activity against Streptococcus pyogenes assessed as growth inhibition at 900 ug/ml by NCCLS […] method; settings: read-out: IZ
Candida albicans [26] = test: Antifungal activity against Candida albicans assessed as growth inhibition at 900 ug/ml; settings: read-out: IZ
Fusarium oxysporum [27] = test: Antifungal activity against Fusarium oxysporum assessed as growth inhibition at 300 ug/ml; settings: read-out: IZ
Candida albicans [28] = test: Antifungal activity against Candida albicans assessed as growth inhibition at 600 ug/ml; settings: read-out: IZ
Klebsiella aerogenes [29] = test: Antibacterial activity against Enterobacter aerogenes assessed as growth inhibition at 600 ug/ml by NCCLS […] method
Priestia megaterium [30] = test: Antibacterial activity against Bacillus megaterium assessed as growth inhibition at 900 ug/ml by NCCLS […] method; settings: read-out: IZ
Staphylococcus aureus [31] = test: Antibacterial activity against Staphylococcus aureus assessed as growth inhibition at 900 ug/ml by NCCLS […] method; settings: read-out: IZ
Proteus mirabilis [32] = test: Antibacterial activity against Proteus mirabilis assessed as growth inhibition at 600 ug/ml by NCCLS […] method; settings: read-out: IZ
Exserohilum rostratum [33] = test: Antifungal activity against Setosphaeria rostrata assessed as growth inhibition at 1200 ug/ml; settings: read-out: IZ
Proteus vulgaris [34] = test: Antibacterial activity against Proteus vulgaris assessed as growth inhibition at 900 ug/ml by NCCLS […] method; settings: read-out: IZ
Bacillus pumilus [35] = test: Antibacterial activity against Bacillus pumilus assessed as growth inhibition at 900 ug/ml by NCCLS […] method; settings: read-out: IZ
Candida albicans [36] = test: Antifungal activity against Candida albicans assessed as growth inhibition at 300 ug/ml; settings: read-out: IZ

Row | SMILES | zone of inhibition at 900 µg/mL (Bacillus subtilis [1]) | zone of inhibition at 600 µg/mL (Proteus vulgaris [2]) | zone of inhibition at 600 µg/mL (Fusarium oxysporum [3]) | zone of inhibition at 900 µg/mL (Exserohilum rostratum [4]) | zone of inhibition at 600 µg/mL (Klebsiella pneumoniae [6]) | zone of inhibition at 600 µg/mL (Bacillus subtilis [7]) | zone of inhibition at 300 µg/mL (Exserohilum rostratum [8]) | zone of inhibition at 300 µg/mL (Colletotrichum falcatum [9]) | zone of inhibition at 600 µg/mL (Priestia megaterium [10]) | zone of inhibition at 900 µg/mL (Klebsiella pneumoniae [11]) | zone of inhibition at 600 µg/mL (Exserohilum rostratum [12]) | zone of inhibition at 600 µg/mL (Streptococcus pyogenes [13]) | zone of inhibition at 600 µg/mL (Staphylococcus aureus [14]) | zone of inhibition at 900 µg/mL (Escherichia coli [15]) | zone of inhibition at 1200 µg/mL (Colletotrichum falcatum [16]) | zone of inhibition at 900 µg/mL (Colletotrichum falcatum [17]) | zone of inhibition at 1200 µg/mL (Candida albicans [18]) | zone of inhibition at 1200 µg/mL (Fusarium oxysporum [19]) | zone of inhibition at 600 µg/mL (Colletotrichum falcatum [20]) | zone of inhibition at 900 µg/mL (Fusarium oxysporum [21]) | also measured
1 | COc1ccc2c(OCCCN3CCN(Cc4ccc(F)cc4F)CC3)c(-c3ccccc3)c(=O)oc2c1 | 10.7 mm | 4.2 mm | 8.56 mm | 14.2 mm | 3.24 mm | 5.3 mm | 5.02 mm | 3.24 mm | 4.48 mm | 6.34 mm | 7.68 mm | 5.3 mm | 3.41 mm | 4.8 mm | 25.9 mm | 13.6 mm | 18.2 mm | 28.1 mm | 5.56 mm | 16.9 mm | growth inhibition (GI) (Klebsiella aerogenes [5]): inactive; zone of inhibition at 900 µg/mL (Proteus mirabilis [22]): 4.29 mm; zone of inhibition at 600 µg/mL (Bacillus pumilus [23]): 5.02 mm; zone of inhibition at 600 µg/mL (Escherichia coli [24]): 2.6 mm; zone of inhibition at 900 µg/mL (Streptococcus pyogenes [25]): 10.2 mm; zone of inhibition at 900 µg/mL (Candida albicans [26]): 9.6 mm; zone of inhibition at 300 µg/mL (Fusarium oxysporum [27]): 4.2 mm; zone of inhibition at 600 µg/mL (Candida albicans [28]): 4.5 mm; growth inhibition (GI) (Klebsiella aerogenes [29]): inactive; zone of inhibition at 900 µg/mL (Priestia megaterium [30]): 8.98 mm; zone of inhibition at 900 µg/mL (Staphylococcus aureus [31]): 6.48 mm; zone of inhibition at 600 µg/mL (Proteus mirabilis [32]): 2.65 mm; zone of inhibition at 1200 µg/mL (Exserohilum rostratum [33]): 26.8 mm; zone of inhibition at 900 µg/mL (Proteus vulgaris [34]): 8.02 mm; zone of inhibition at 900 µg/mL (Bacillus pumilus [35]): 10.7 mm; zone of inhibition at 300 µg/mL (Candida albicans [36]): 2.25 mm
2 | COc1ccc2c(OCCCN3CCN(Cc4ccc(Cl)cc4Cl)CC3)c(-c3ccccc3)c(=O)oc2c1 | 12.1 mm | 4.02 mm | 6.25 mm | 11.6 mm | 8.82 mm | 9.02 mm | 2.89 mm | 3.25 mm | 6.3 mm | 14 mm | 5.76 mm | 3.27 mm | 6.5 mm | 14.1 mm | 26.4 mm | 13.8 mm | 17.2 mm | 25.8 mm | 6.5 mm | 13.6 mm | zone of inhibition at 900 µg/mL (Klebsiella aerogenes [5]; read-out: IZ): 8.08 mm; zone of inhibition at 900 µg/mL (Proteus mirabilis [22]): 9.01 mm; zone of inhibition at 600 µg/mL (Bacillus pumilus [23]): 2.01 mm; zone of inhibition at 600 µg/mL (Escherichia coli [24]): 7.02 mm; zone of inhibition at 900 µg/mL (Streptococcus pyogenes [25]): 6.25 mm; zone of inhibition at 900 µg/mL (Candida albicans [26]): 9.56 mm; zone of inhibition at 300 µg/mL (Fusarium oxysporum [27]): 3.08 mm; zone of inhibition at 600 µg/mL (Candida albicans [28]): 4.89 mm; zone of inhibition at 600 µg/mL (Klebsiella aerogenes [29]; read-out: IZ): 4.25 mm; zone of inhibition at 900 µg/mL (Priestia megaterium [30]): 12 mm; zone of inhibition at 900 µg/mL (Staphylococcus aureus [31]): 12 mm; zone of inhibition at 600 µg/mL (Proteus mirabilis [32]): 4.91 mm; zone of inhibition at 1200 µg/mL (Exserohilum rostratum [33]): 23.2 mm; zone of inhibition at 900 µg/mL (Proteus vulgaris [34]): 8.04 mm; zone of inhibition at 900 µg/mL (Bacillus pumilus [35]): 4.28 mm; zone of inhibition at 300 µg/mL (Candida albicans [36]): 2.01 mm
